Assay results taken from patent publication US7521590B2, “Phospholipase C β1 (PLCβ1) knockout mice as a model system for testing schizophrenia drugs” (Korea Institute of Science and Technology, priority 2006, dated 2009).

Legend:
wild-type mice = test: Prepulse inhibition (PPI) of acoustic startle response in wild-type mice; assay type: in vivo, mouse; details: 0.2 mg/kg i.p. 45 minutes before the test, vs vehicle
Method: (§1) PPI tests were carried out with 26 responder mice 13˜15 weeks old by using a single acoustic startle chamber (Coulbourn Instruments, USA), one mouse at a time. The startle reflex was triggered by a pulse stimulus in the form of a 40 msec, 120 dB burst of white noise (SS). Inhibition of the SS-elicited startle response was achieved using a 20 msec-prepulse stimulus of various intensities (74, 82, and 90 dB white noise) that preceded SS by 100 msec.
(§2) The test was composed of a series of 7 blocks, each of which was a “semi-random” mixture of 8 different trial types (no stimulus, SS only, three PP only, three PP plus SS), separated by 10 to 15-second intertrial intervals. The percent prepulse inhibition (%PPI) was calculated as [1−(response to PP-SS coupling/response to SS only)]×100.
(§3) Haloperidol (0.2 mg/kg body weight) was intraperitonealy (i.p.) administered 45 minutes before the test, using 0.5% dimethylsulfoxide (DMSO) in saline (0.9% NaCl) as the vehicle. Haloperidol (Tocris Cookson, UK) stock solution was prepared in DMSO and stored at […] for less than a month.

PLCβ1−/− mice = test: Prepulse inhibition (PPI) of acoustic startle response in PLCβ1−/− mice; assay type: in vivo, mouse; details: 0.2 mg/kg i.p. 45 minutes before the test, prepulse 74, 82, 90 dB, p<0.05 vs vehicle
Method: as §1, §2, §3

O=C(CCCN1CCC(O)(c2ccc(Cl)cc2)CC1)c1ccc(F)cc1 [haloperidol, Haloperidol]
effect on the PPI (%PPI) (wild-type mice): not effective | effect on the PPI deficit (%PPI) (PLCβ1−/− mice): completely reversed
